Patent US10392383B2, “3-(1H-benzo[d]imidazol-2-yl)-1H-pyrazolo[4,3-b]pyridines and therapeutic uses thereof” (Samumed, LLC, priority 2015, dated 2019)

Tested on: primary human mesenchymal stem cells (hMSCs)
Test: Induction of chondrogenesis in human mesenchymal stem cells (nodule staining with Rhodamine B / Nile Red)
Assay type: cell-based
Settings: for Emax: TGF-β3 (10 ng/mL) as positive control, read-out: Max. Activity as % TGF-β3 activity; for EC50: concentration required to induce 50% levels of chondrogenesis vs TGF-β3, read-out: Conc (nM) of 50% TGF-β3 activity
Procedure, shortened: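 Primary hMSCs (passage 3–6) in incomplete chondrogenic induction medium were exposed 6 days at 37° C to compound (1:3 dilutions, 2700–10 nM in 96-well or 5000–2.2 nM in 384-well; 0.03% DMSO). Nodules stained with Rhodamine B/Nile Red were imaged; area normalized to DMSO wells for EC50, maximal activity and dose at maximum.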

SMILES	EC50 [nM]	Emax [%]
CCC(=O)Nc1cncc(-c2ccc3[nH]nc(-c4nc5c(-c6cccs6)cccc5[nH]4)c3n2)c1 [Compound 337, N-(5-(3-(4-(Thiophen-2-yl)-1H-benzo[d]imidazol-2-yl)-1H-pyrazolo[4,3-b]pyridin-5-yl)pyridin-3-yl)propionamide]		57
Cc1ccc(-c2cccc3[nH]c(-c4n[nH]c5ccc(-c6cncc(N)c6)nc45)nc23)s1 [Compound 395, 5-(3-(4-(5-Methylthiophen-2-yl)-1H-benzo[d]imidazol-2-yl)-1H-pyrazolo [4,3-b]pyridin-5-yl)pyridin-3-amine]	10	88
Fc1cccc(-c2cccc3[nH]c(-c4n[nH]c5ccc(-c6ccncc6)nc45)nc23)c1 [Compound 18, 3-(4-(3-Fluorophenyl)-1H-benzo[d]imidazol-2-yl)-5-(pyridin-4-yl)-1H-pyrazolo[4,3-b]pyridine]		39
CC(C)CC(=O)Nc1cncc(-c2ccc3[nH]nc(-c4nc5c(-c6cccc(F)c6)cccc5[nH]4)c3n2)c1 [Compound 2, N-(5-(3-(4-(3-Fluorophenyl)-1H-benzo[d]imidazol-2-yl)-1H-pyrazolo[4,3-b]pyridin-5-yl)pyridin-3-yl)-3-methylbutanamide]	21	57
Cc1cn(-c2cccc3[nH]c(-c4n[nH]c5ccc(-c6cncc(NC(=O)C(C)(C)C)c6)nc45)nc23)cn1 [Compound 204, N-(5-(3-(4-(4-Methyl-1H-imidazol-1-yl)-1H-benzo[d]imidazol-2-yl)-1H-pyrazolo[4,3-b]pyridin-5-yl)pyridin-3-yl)pivalamide]	10	78

The next lines start with results.

EC50 [nM]	SMILES	Emax [%]
7	NC1CN(c2cncc(-c3ccc4[nH]nc(-c5nc6c(-c7cccc(F)c7)cccc6[nH]5)c4n3)n2)C1 [Compound 510, 1-(6-(3-(4-(3-Fluorophenyl)-1H-benzo[d]imidazol-2-yl)-1H-pyrazolo[4,3-b]pyridin-5-yl)pyrazin-2-yl)azetidin-3-amine]	53
62	CCNCc1cncc(-c2ccc3[nH]nc(-c4nc5c(-c6cc(F)cc(NCCN(C)C)c6)cccc5[nH]4)c3n2)c1 [Compound 454, N^1-(3-(2-(5-(5-((Ethylamino)methyl)pyridin-3-yl)-1H-pyrazolo[4,3-b]pyridin-3-yl)-1H-benzo[d]imidazol-4-yl)-5-fluorophenyl)-N^2,N^2-dimethylethane-1,2-diamine]	104
300	Cc1ccc(-c2cccc3[nH]c(-c4n[nH]c5ccc(-c6cncc(NC(=O)C(C)C)c6)nc45)nc23)s1 [Compound 401, N-(5-(3-(4-(5-Methylthiophen-2-yl)-1H-benzo[d]imidazol-2-yl)-1H-pyrazolo [4,3-b]pyridin-5-yl)pyridin-3-yl)isobutyramide]	124
